# Laboratory results from ChEMBL document CHEMBL1201861, “Genomics of Drug Sensitity in Cancer screening data, Wellcome Trust Sanger Institute”.
# pIC50: −log10 of the molar value. Values joined by “and” are separate entries in the source; they are usually repeats but may differ in a detail not shown here. Equal entries are not always repeated.
# Columns and labels:
# Assay in all cases: cells
# HCC1187 = format: functional, cell-based, Homo sapiens;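 note: growth inhibition of HCC1187 cells, read out with a cell viability assay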
# Description: SANGER: Inhibition of human HCC1187 cell growth in a cell viability assay.
# NB13 = format: functional, cell-based, Homo sapiens;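 note: cell viability readout measuring growth inhibition of human NB13 cells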
# Description: SANGER: Inhibition of human NB13 cell growth in a cell viability assay.
# KYSE-140 = format: functional, cell-based, Homo sapiens;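 note: cell viability assay measuring growth inhibition in human KYSE-140 cells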
# Description: SANGER: Inhibition of human KYSE-140 cell growth in a cell viability assay.
# K5 = format: functional, cell-based, Homo sapiens
# Description: SANGER: Inhibition of human K5 cell growth in a cell viability assay.
# KYSE-270 = format: functional, cell-based, Homo sapiens;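 note: cell growth inhibition measured with a viability assay in the human KYSE-270 line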
# Description: SANGER: Inhibition of human KYSE-270 cell growth in a cell viability assay.
# MEL-HO = format: functional, cell-based, Homo sapiens
# Description: SANGER: Inhibition of human MEL-HO cell growth in a cell viability assay.
# COLO-824 = format: functional, cell-based, Homo sapiens
# Description: SANGER: Inhibition of human COLO-824 cell growth in a cell viability assay.
# EW-18 = format: functional, cell-based; conditions: Homo sapiens;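 note: growth inhibition of EW-18 cells, read out by a cell viability assay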
# Description: SANGER: Inhibition of human EW-18 cell growth in a cell viability assay.
# RPMI-7951 = format: functional, cell-based, Homo sapiens
# Description: SANGER: Inhibition of human RPMI-7951 cell growth in a cell viability assay.
# COLO-684 = format: functional, cell-based; conditions: Homo sapiens
# Description: SANGER: Inhibition of human COLO-684 cell growth in a cell viability assay.
# NCI-H596 = format: functional, cell-based, Homo sapiens;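 note: growth inhibition of NCI-H596 cells, read out with a cell viability assay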
# Description: SANGER: Inhibition of human NCI-H596 cell growth in a cell viability assay.
# JEG-3 = format: functional, cell-based, Homo sapiens;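 note: growth inhibition of human JEG-3 cells, read out with a cell viability assay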
# Description: SANGER: Inhibition of human JEG-3 cell growth in a cell viability assay.
# TE-8 = format: functional, cell-based, Homo sapiens;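 note: growth inhibition of TE-8 cells, measured with a cell viability readout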
# Description: SANGER: Inhibition of human TE-8 cell growth in a cell viability assay.
# ATN-1 = format: functional, cell-based; conditions: Homo sapiens;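 note: growth inhibition of human ATN-1 cells, read out with a cell viability assay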
# Description: SANGER: Inhibition of human ATN-1 cell growth in a cell viability assay.
# T84 = format: functional, cell-based, Homo sapiens;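 note: growth inhibition measured with a cell viability readout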
# Description: SANGER: Inhibition of human T84 cell growth in a cell viability assay.
# SCC-15 = format: functional, cell-based, Homo sapiens;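 note: growth inhibition of SCC-15 cells, read out with a cell viability assay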
# Description: SANGER: Inhibition of human SCC-15 cell growth in a cell viability assay.
# NUGC-3 = format: functional, cell-based, Homo sapiens;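 note: growth inhibition of human NUGC-3 cells, read out with a cell viability assay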
# Description: SANGER: Inhibition of human NUGC-3 cell growth in a cell viability assay.
# HSC-3 = format: functional, cell-based, Homo sapiens
# Description: SANGER: Inhibition of human HSC-3 cell growth in a cell viability assay.
# RERF-LC-MS = format: functional, cell-based, Homo sapiens;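 note: growth inhibition of human RERF-LC-MS cells, read out by a cell viability assay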
# Description: SANGER: Inhibition of human RERF-LC-MS cell growth in a cell viability assay.
# HCC38 = format: functional, cell-based, Homo sapiens;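 note: cell viability assay on the human HCC38 cell line, with IC50 marking the concentration that inhibits cell growth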
# Description: SANGER: Inhibition of human HCC38 cell growth in a cell viability assay.
# KARPAS-45 = format: functional, cell-based; conditions: Homo sapiens;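 note: inhibition of cell line growth, read out through a viability assay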
# Description: SANGER: Inhibition of human KARPAS-45 cell growth in a cell viability assay.
# SK-PN-DW = format: functional, cell-based; conditions: Homo sapiens;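 note: growth inhibition measured with a viability assay on these cells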
# Description: SANGER: Inhibition of human SK-PN-DW cell growth in a cell viability assay.
# MDA-MB-157 = format: functional, cell-based, Homo sapiens
# Description: SANGER: Inhibition of human MDA-MB-157 cell growth in a cell viability assay.
# CAL-85-1 = format: functional, cell-based; conditions: Homo sapiens;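 note: growth inhibition of human CAL-85-1 cells, read out with a cell viability assay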
# Description: SANGER: Inhibition of human CAL-85-1 cell growth in a cell viability assay.
# NCI-H292 = format: functional, cell-based, Homo sapiens;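 note: growth inhibition of NCI-H292 cells, read out with a cell viability assay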
# Description: SANGER: Inhibition of human NCI-H292 cell growth in a cell viability assay.
# SK-LU-1 = format: functional, cell-based, Homo sapiens;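 note: cell viability assay measuring growth inhibition of human SK-LU-1 cells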
# Description: SANGER: Inhibition of human SK-LU-1 cell growth in a cell viability assay.
# SK-UT-1 = format: functional, cell-based, Homo sapiens;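 note: growth inhibition of SK-UT-1 cells, measured by a cell viability assay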
# Description: SANGER: Inhibition of human SK-UT-1 cell growth in a cell viability assay.
# ETK-1 = format: functional, cell-based, Homo sapiens;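 note: growth inhibition of human ETK-1 cells, read out with a cell viability assay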
# Description: SANGER: Inhibition of human ETK-1 cell growth in a cell viability assay.
# U-118-MG = format: functional, cell-based, Homo sapiens
# Description: SANGER: Inhibition of human U-118-MG cell growth in a cell viability assay.
# UMUC3 = format: functional, cell-based, Homo sapiens;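 note: growth inhibition of human UM-UC-3 cells, read out with a cell viability assay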
# Description: SANGER: Inhibition of human UM-UC-3 cell growth in a cell viability assay.
# OCI-AML2 = format: functional, cell-based; conditions: Homo sapiens;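 note: growth inhibition of OCI-AML2 cells, read out with a cell viability assay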
# Description: SANGER: Inhibition of human OCI-AML2 cell growth in a cell viability assay.
# DMS-79 = format: functional, cell-based; conditions: Homo sapiens;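 note: growth inhibition measured with a cell viability assay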
# Description: SANGER: Inhibition of human DMS-79 cell growth in a cell viability assay.
# SW948 = format: functional, cell-based, Homo sapiens;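 note: growth inhibition of SW948 cells, read out with a cell viability assay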
# Description: SANGER: Inhibition of human SW948 cell growth in a cell viability assay.
# ALL-PO = format: functional, cell-based; conditions: Homo sapiens;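 note: growth inhibition of ALL-PO cells, read out by a cell viability assay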
# Description: SANGER: Inhibition of human ALL-PO cell growth in a cell viability assay.
# NCI-H1304 = format: functional, cell-based; conditions: Homo sapiens;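 note: growth inhibition of the cancer cell line, measured in a cell viability assay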
# Description: SANGER: Inhibition of human NCI-H1304 cell growth in a cell viability assay.
# GI-1 = format: functional, cell-based, Homo sapiens;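 note: growth inhibition of human GI-1 cells, measured with a cell viability readout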
# Description: SANGER: Inhibition of human GI-1 cell growth in a cell viability assay.
# SW626 = format: functional, cell-based, Homo sapiens;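 note: growth inhibition of SW626 cells, measured with a cell viability assay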
# Description: SANGER: Inhibition of human SW626 cell growth in a cell viability assay.
# MDA-MB-231 = format: functional, cell-based, Homo sapiens
# Description: SANGER: Inhibition of human MDA-MB-231 cell growth in a cell viability assay.
# NB14 = format: functional, cell-based; conditions: Homo sapiens;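 note: growth inhibition of NB14 cells measured with a cell viability assay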
# Description: SANGER: Inhibition of human NB14 cell growth in a cell viability assay.
# NB69 = format: functional, cell-based, Homo sapiens;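 note: growth inhibition of NB69 cells, determined by a cell viability assay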
# Description: SANGER: Inhibition of human NB69 cell growth in a cell viability assay.
# BB30-HNC = format: functional, cell-based, Homo sapiens;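 note: growth inhibition of the cultured cell line, read out by a cell viability assay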
# Description: SANGER: Inhibition of human BB30-HNC cell growth in a cell viability assay.
# KU812 cell line = format: functional, cell-based; conditions: Homo sapiens;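 note: growth inhibition of KU812 cells, read out with a cell viability assay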
# Description: SANGER: Inhibition of human KU812 cell growth in a cell viability assay.
# CCRF-CEM = format: functional, cell-based; conditions: Homo sapiens;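 note: inhibition of CCRF-CEM cell growth, measured by a cell viability assay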
# Description: SANGER: Inhibition of human CCRF-CEM cell growth in a cell viability assay.
# LS-1034 = format: functional, cell-based, Homo sapiens
# Description: SANGER: Inhibition of human LS-1034 cell growth in a cell viability assay.
# EKVX = format: functional, cell-based, Homo sapiens;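 note: growth inhibition of human EKVX cells, read out with a cell viability assay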
# Description: SANGER: Inhibition of human EKVX cell growth in a cell viability assay.
# COLO-320-HSR = format: functional, cell-based; conditions: Homo sapiens;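 note: growth inhibition of COLO-320-HSR cells, determined with a cell viability assay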
# Description: SANGER: Inhibition of human COLO-320-HSR cell growth in a cell viability assay.
# TK-10 = format: functional, cell-based, Homo sapiens;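 note: growth inhibition of TK-10 cells, read out in a cell viability assay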
# Description: SANGER: Inhibition of human TK10 cell growth in a cell viability assay.
# COLO-668 = format: functional, cell-based, Homo sapiens
# Description: SANGER: Inhibition of human COLO-668 cell growth in a cell viability assay.
# NCI-H1355 = format: functional, cell-based, Homo sapiens;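 note: growth inhibition of human NCI-H1355 cells, read out by a cell viability assay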
# Description: SANGER: Inhibition of human NCI-H1355 cell growth in a cell viability assay.
# SiHa = format: functional, cell-based, Homo sapiens;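 note: Viability-based readout of growth inhibition in SiHa cells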
# Description: SANGER: Inhibition of human SiHa cell growth in a cell viability assay.
# OMC-1 = format: functional, cell-based, Homo sapiens; conditions: omc-1;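 note: growth inhibition of the OMC-1 cell line, measured by a cell viability assay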
# Description: SANGER: Inhibition of human OMC-1 cell growth in a cell viability assay.
# UO-31 = format: functional, cell-based; conditions: Homo sapiens;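 note: cell viability assay measuring inhibition of cell growth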
# Description: SANGER: Inhibition of human U031 cell growth in a cell viability assay.
# SW1783 = format: functional, cell-based; conditions: Homo sapiens;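 note: cell growth inhibition measured with a viability assay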
# Description: SANGER: Inhibition of human SW1783 cell growth in a cell viability assay.
structure (smiles),measurement,setting,value
Cc1cc([C@@H](C)Nc2ccccc2C(=O)O)c2nc(N3CCOCC3)cc(=O)n2c1 [AZD-6482],pIC50,"HCC1187; Homo sapiens, HCC1187",< 5.29
same,pIC50,HCC1187; hcc1187,< 5.29
same,pIC50,"NB13; Homo sapiens, NB13",< 5.29
same,pIC50,NB13; nb13,< 5.29
same,pIC50,KYSE-140; kyse-140,< 5.29
same,pIC50,"K5; Homo sapiens, K5",< 5.29
same,pIC50,K5; k5,< 5.29
same,pIC50,KYSE-270; kyse-270,< 5.29
same,pIC50,MEL-HO; mel-ho,5.91 and < 5.29
same,pIC50,COLO-824; colo-824,< 5.29
same,pIC50,EW-18,< 5.29
same,pIC50,"RPMI-7951; Homo sapiens, RPMI-7951",< 5.29
same,pIC50,RPMI-7951; rpmi-7951,< 5.29
same,pIC50,COLO-684,5.66
same,pIC50,NCI-H596; nci-h596,< 5.29
same,pIC50,JEG-3; jeg-3,< 5.29
same,pIC50,TE-8; te-8,< 5.29
same,pIC50,ATN-1,< 5.29
same,pIC50,T84; t84,< 5.29
same,pIC50,SCC-15; scc-15,< 5.29
same,pIC50,NUGC-3; nugc-3,< 5.29
same,pIC50,HSC-3; hsc-3,< 5.29
same,pIC50,RERF-LC-MS; rerf-lc-ms,< 5.29 and 5.36
same,pIC50,HCC38; hcc38,< 5.29
same,pIC50,KARPAS-45,5.48
same,pIC50,SK-PN-DW,< 5.29
same,pIC50,MDA-MB-157; mda-mb-157,< 5.29
same,pIC50,CAL-85-1,5.64
same,pIC50,NCI-H292; nci-h292,5.44 and 5.81
same,pIC50,SK-LU-1; sk-lu-1,< 5.29
same,pIC50,SK-UT-1; sk-ut-1,5.61 and < 5.29
same,pIC50,ETK-1; etk-1,< 5.29
same,pIC50,U-118-MG; u-118-mg,< 5.29 and 5.49
same,pIC50,UMUC3; umuc3,< 5.29
same,pIC50,OCI-AML2,< 5.29
same,pIC50,DMS-79,< 5.29
same,pIC50,SW948; sw948,< 5.29
same,pIC50,ALL-PO,< 5.29
same,pIC50,NCI-H1304,< 5.29
same,pIC50,GI-1; gi-1,5.88 and < 5.29
same,pIC50,SW626; sw626,< 5.29
same,pIC50,"MDA-MB-231; Homo sapiens, MDA-MB-231",< 5.29
same,pIC50,MDA-MB-231; mda-mb-231,< 5.29
same,pIC50,NB14,< 5.29
same,pIC50,"NB69; Homo sapiens, NB69",< 5.29
same,pIC50,NB69; nb69,< 5.29
same,pIC50,"BB30-HNC; Homo sapiens, BB30-HNC",5.31
same,pIC50,BB30-HNC; bb30-hnc,< 5.29
same,pIC50,KU812 cell line,5.80
same,pIC50,CCRF-CEM,5.44
same,pIC50,"LS-1034; Homo sapiens, LS-1034",< 5.29
same,pIC50,LS-1034; ls-1034,< 5.29
same,pIC50,EKVX; ekvx,< 5.29
same,pIC50,COLO-320-HSR,< 5.29
same,pIC50,TK-10; tk-10,< 5.29
same,pIC50,COLO-668; colo-668,< 5.29
same,pIC50,"NCI-H1355; Homo sapiens, NCI-H1355",< 5.29
same,pIC50,NCI-H1355; nci-h1355,< 5.29
same,pIC50,"SiHa; Homo sapiens, SiHa",< 5.29
same,pIC50,SiHa; siha,< 5.29
same,pIC50,OMC-1,< 5.29
CC(=O)O[C@@H]1[C@@H](OC(C)=O)[C@@H](O)[C@H](Oc2c(-c3ccc(O)cc3)oc3cc(O)cc(O)c3c2=O)O[C@H]1C,pIC50,"HCC1187; Homo sapiens, HCC1187",< 5.00
same,pIC50,"NB13; Homo sapiens, NB13",< 5.00
same,pIC50,"KYSE-140; Homo sapiens, KYSE-140",< 5.00
same,pIC50,"K5; Homo sapiens, K5",< 5.00
same,pIC50,"KYSE-270; Homo sapiens, KYSE-270",< 5.00
same,pIC50,"MEL-HO; Homo sapiens, MEL-HO",< 5.00
same,pIC50,UO-31,< 5.00
same,pIC50,"COLO-824; Homo sapiens, COLO-824",< 5.00
same,pIC50,EW-18,< 5.00
same,pIC50,"RPMI-7951; Homo sapiens, RPMI-7951",< 5.00
same,pIC50,COLO-684,< 5.00
same,pIC50,"NCI-H596; Homo sapiens, NCI-H596",< 5.00
same,pIC50,"JEG-3; Homo sapiens, JEG-3",< 5.00
same,pIC50,"TE-8; Homo sapiens, TE-8",< 5.00
same,pIC50,ATN-1,< 5.00
same,pIC50,"T84; Homo sapiens, T84",< 5.00
same,pIC50,"SCC-15; Homo sapiens, SCC-15",< 5.00
same,pIC50,"NUGC-3; Homo sapiens, NUGC-3",< 5.00
same,pIC50,"HSC-3; Homo sapiens, HSC-3",< 5.00
same,pIC50,"RERF-LC-MS; Homo sapiens, RERF-LC-MS",< 5.00
same,pIC50,"HCC38; Homo sapiens, HCC38",< 5.00
same,pIC50,KARPAS-45,< 5.00
same,pIC50,SK-PN-DW,< 5.00
same,pIC50,"MDA-MB-157; Homo sapiens, MDA-MB-157",< 5.00
same,pIC50,CAL-85-1,< 5.00
same,pIC50,"NCI-H292; Homo sapiens, NCI-H292",< 5.00
same,pIC50,"SK-LU-1; Homo sapiens, SK-LU-1",< 5.00
same,pIC50,"SK-UT-1; Homo sapiens, SK-UT-1",< 5.00
same,pIC50,"ETK-1; Homo sapiens, ETK-1",< 5.00
same,pIC50,"U-118-MG; Homo sapiens, U-118-MG",< 5.00
same,pIC50,"UMUC3; Homo sapiens, UMUC3",< 5.00
same,pIC50,OCI-AML2,< 5.00
same,pIC50,"SW948; Homo sapiens, SW948",< 5.00
same,pIC50,SW1783,< 5.00
same,pIC50,ALL-PO,< 5.00
same,pIC50,NCI-H1304,< 5.00
same,pIC50,"GI-1; Homo sapiens, GI-1",< 5.00
same,pIC50,"SW626; Homo sapiens, SW626",< 5.00
same,pIC50,"MDA-MB-231; Homo sapiens, MDA-MB-231",< 5.00
same,pIC50,NB14,< 5.00
same,pIC50,"NB69; Homo sapiens, NB69",< 5.00
same,pIC50,"BB30-HNC; Homo sapiens, BB30-HNC",< 5.00
same,pIC50,KU812 cell line,< 5.00
same,pIC50,CCRF-CEM,< 5.00
same,pIC50,"LS-1034; Homo sapiens, LS-1034",< 5.00
same,pIC50,"EKVX; Homo sapiens, EKVX",< 5.00
same,pIC50,COLO-320-HSR,< 5.00
same,pIC50,"TK-10; Homo sapiens, TK-10",< 5.00
same,pIC50,"COLO-668; Homo sapiens, COLO-668",< 5.00
same,pIC50,"NCI-H1355; Homo sapiens, NCI-H1355",< 5.00
